Experimental data reported in patent US4782058A, “1,3,4,6,7,11b-Hexahydro-6-phenyl-2H-pyrazino-(2,1-a)isoquinolines, for anti-histamine or anti-depression treatment” (Pennwalt Corporation, priority 1987, dated 1988).
Counter-ions that a name gives are not always drawn.

Assays:
[1] = test system: tetrabenazine-induced ptosis; experiment: inhibition of tetrabenazine-induced ptosis in mice; format: in vivo; details: Mus musculus, po; male CF-1 mice, orally administered 15 min before i.v. tetrabenazine; ptosis rated 30-150 min; read-out: lowest active dose (LAD)
Method: A particularly useful compound with respect to antidepressant activity is the title compound of Example 1 (i.e., the cis-diastereoisomeric form of the compound of formula I in which R1 is methyl, R2 is methoxy, and R3 is hydrogen). That compound was tested for antidepressant activity by measuring its ability to inhibit tetrabenazine-induced ptosis in mice.
Male CF-1 mice weighing 19-32 grams were housed for a minimum of 5 days under a 12 hour light/dark (6 am/6 pm) schedule at 70°-74° F. and relative humidity of 30-50%. Food and water were available ad libitum until the time of administration of test compounds. Mice in groups of ten were orally administered (via gastric intubation) either the control solution (distilled water, 10 ml/kg) or the test compound. The test compound was either dissolved in distilled water or suspended in distilled water containing a drop of polyoxyethylene 20 sorbitan monooleate, sold under the trademark, Tween 80. After fifteen minutes, a dose of 10 ml/kg of a solution of tetrabenazine (as its methane sulfonate salt) in distilled water (4 mg/ml) was administered by intravenous injection. The degree of palpebral closure (ptosis) was determined 30, 60, 90, 120, and 150 minutes after administration of the tetrabenazine solution. […]

[2] = biological target: T1, histamine H1 -receptors (Rattus norvegicus, UniProt P31390); experiment: inhibition of binding of 3H-pyrilamine to homogenated rat cerebral tissue; details: 3H-pyrilamine binding, read-out: IC50 (50% inhibitory concentration)
T1 construct: homogenated rat cerebral tissue; from tissue; host or cells: rat cerebral tissue, homogenate
Method: That compound was assayed for anti-histamine activity by measuring its ability to inhibit the binding of 3H-pyrilamine to homogenated rat cerebral tissue. (3H-Pyrilamine is a radioligand that is used to characterize histamine H1 -receptors in brain tissue.) Assay conditions were essentially those of V. T. Tran et al, Proc. Nat'l. Acad. Sci. (USA) 75, p. 6290-6294 (1978).

T1 sequence (P31390 whole entry): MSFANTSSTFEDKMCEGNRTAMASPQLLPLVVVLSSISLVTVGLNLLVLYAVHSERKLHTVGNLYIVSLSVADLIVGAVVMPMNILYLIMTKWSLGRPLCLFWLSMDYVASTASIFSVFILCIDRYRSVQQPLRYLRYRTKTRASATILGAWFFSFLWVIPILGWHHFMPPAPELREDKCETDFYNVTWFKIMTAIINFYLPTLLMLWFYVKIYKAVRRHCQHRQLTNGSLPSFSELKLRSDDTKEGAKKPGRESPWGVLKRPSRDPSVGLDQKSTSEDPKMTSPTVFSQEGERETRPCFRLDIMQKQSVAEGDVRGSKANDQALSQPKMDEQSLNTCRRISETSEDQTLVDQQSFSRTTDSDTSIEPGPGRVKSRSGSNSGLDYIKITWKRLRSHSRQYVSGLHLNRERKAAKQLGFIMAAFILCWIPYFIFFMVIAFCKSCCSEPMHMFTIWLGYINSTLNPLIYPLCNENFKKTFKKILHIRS

Row | Compound | minimal effective dose [1] [mg/kg] | IC50 [2] [nM]
1 | COc1ccc2c(c1)C[C@@H](c1ccccc1)N1CCN(C)C[C@@H]21 (relative stereo) [Example 1, cis-1,3,4,6,7,11b-hexahydro-9-methoxy-2-methyl-6-phenyl-2H-pyrazino[2,1-a]isoquinoline dihyrochloride] | 20 | –
2 | CN1CCN2[C@@H](c3ccccc3)Cc3cc(O)ccc3[C@@H]2C1 (relative stereo) [Example 2, cis-1,3,4,6,7,11b-hexahydro-9-hydroxy-2-methyl-6-phenyl-2H-pyrazino[2,1-a]isoquinoline dihydrobromide] | – | 250
